Results on 2 compounds are retold here after publication PMC5333456, “Characterization of HSP90 isoforms in transformed bovine leukocytes infected with Theileria annulata” (Cellular Microbiology, 2016).

The target of assay [1] is T1, TA12105 (T. annulata cytoplasmic HSP90) (Theileria annulata, UniProt Q4UDU8). The experiment in a line: biochemical.
Assay [2] deals with T1, TA12105 (T. annulata cytoplasmic HSP90). Briefly: intrinsic tryptophan fluorescence quenching (ATPase Km […]). The assay is classed as binding.

Usually Kd stands for the free concentration of one partner at which half of the binding sites on the other are occupied at equilibrium, for simple one-to-one binding. Low values mean tighter binding, high ones weaker binding.

T1 sequence (Q4UDU8 whole entry): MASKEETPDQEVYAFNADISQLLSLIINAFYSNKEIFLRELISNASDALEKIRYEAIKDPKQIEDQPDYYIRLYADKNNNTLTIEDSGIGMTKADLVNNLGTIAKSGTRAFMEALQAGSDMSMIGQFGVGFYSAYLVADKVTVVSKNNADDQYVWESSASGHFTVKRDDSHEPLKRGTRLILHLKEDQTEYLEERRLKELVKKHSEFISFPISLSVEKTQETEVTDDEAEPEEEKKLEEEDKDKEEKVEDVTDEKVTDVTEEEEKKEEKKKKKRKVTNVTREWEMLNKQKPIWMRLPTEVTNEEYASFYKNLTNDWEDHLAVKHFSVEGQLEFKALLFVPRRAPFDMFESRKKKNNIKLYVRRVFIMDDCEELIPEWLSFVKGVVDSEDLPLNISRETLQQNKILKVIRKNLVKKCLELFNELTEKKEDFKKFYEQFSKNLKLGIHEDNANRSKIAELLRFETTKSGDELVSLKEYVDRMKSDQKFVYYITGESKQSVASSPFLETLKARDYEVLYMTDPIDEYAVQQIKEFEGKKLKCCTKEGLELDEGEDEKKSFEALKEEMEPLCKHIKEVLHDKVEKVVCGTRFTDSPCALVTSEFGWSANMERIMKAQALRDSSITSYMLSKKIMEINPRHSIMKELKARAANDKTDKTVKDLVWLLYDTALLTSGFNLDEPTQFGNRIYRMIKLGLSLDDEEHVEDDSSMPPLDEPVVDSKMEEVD

In the case of `C=CCNC1=C2C[C@@H](C)C[C@H](OC)[C@H](O)[C@@H](C)/C=C(\C)[C@H](OC(N)=O)[C@@H](OC)/C=C\C=C(/C)C(=O)NC(=CC1=O)C2=O` [17-AAG], in assay [1], the Kd amounted to 7.67 µM.

`Nc1ncnc2c1ncn2[C@@H]1O[C@H](COP(=O)(O)OP(=O)(O)OP(=O)(O)O)[C@@H](O)[C@H]1O` [ATP] had a Kd in assay [2] of 179 µM.
